12 compounds from article PMC3180999 (Journal of medicinal chemistry, 2010) can be followed below.

The test system of series [1] is AR. The series is described as follows: luciferase reporter assay. The class given is cell-based. Conditions: for luciferase reporter assay activity: Scheme 14; for luciferase assay activity: vs 21 and 22 as standards, Scheme 13. For orientation: In a reporter assay the amount or activity of a reporter protein is the signal.
The subject of series [2] is PSA secretion. The series is described as follows: relative PSA level / PSA secretion assay, cell line not named. In kind it is cell-based.
Series [3] deals with AR. The series is described as follows: activity test, assay not named. In kind it is cell-based. Conditions: 27 as the standard, Scheme 10.
The test system of series [4] is LAPC4/AR cells. The series is described as follows: LAPC4/AR xenograft in castrate SCID mice. The class given is in vivo. Conditions: for fold change in tumor volume of xenografts: 10 mg/kg, pilot experiment, Figure 1.
Series [5] has as its system LNCaP (hormone sensitive) cells. The series is described as follows: PSA expression readout in normal LNCaP. Conditions: bicalutamide as standard, Scheme 6. The class given is cell-based.
Series [6] concerns LNCaP/AR cells. The series is described as follows: PSA expression readout in LNCaP/AR. In kind it is cell-based. Conditions: hormone refractory cell line LNCaP/AR, Scheme 17.
A short description of series [7]: pharmacokinetics: serum concentration, steady state concentration.
Setting [8] is: vs 21 and 22 as standards, Scheme 13.
Setting [9] is: serum concentration after IV injection, Figure 3.

Molecules are shown by their SMILES.

On to `Cc1ccc(N2/C(=N/c3ccc(C#N)c(C(F)(F)F)c3)S/C(=N\C(=S)Nc3ccc(C#N)c(C(F)(F)F)c3)C2(C)C)cc1` [compound 63], for which the “luciferase reporter assay activity” value in series [1] was “excellent activity comparable to their parent thiohydantoin analogues 27 and 38”. In addition, in series [2] (Scheme 14), the “relative PSA levels” value is “excellent activity comparable to their parent thiohydantoin analogues 27 and 38”. In the case of `Cc1ccc(N2C(=S)N(c3ccc(C#N)c(C(F)(F)F)c3)C(=O)C2(CCl)CCl)cc1` [compound 46], the activity result in series [3] is on record as “decreased activity”. In the case of `Cc1ccccc1N1C(=S)N(c2ccc(C#N)c(C(F)(F)F)c2)C(=O)C12CCC2` [compound 44], the result in series [3] was active. Consider `N#Cc1ccc(N2C(=O)C3(CCC3)N(c3ccccc3C(=O)O)C2=S)cc1C(F)(F)F` [compound 45], for which, in series [3], the result was inactive. Regarding `Cc1ccc(N2C(=S)N(c3ccc(C#N)c(C(F)(F)F)c3)C(=O)C2(C)C)cc1` [compound 27, 4-[3-(4-Methylphenyl)-4,4-dimethyl-5-oxo-2-thioxoimidazolidin-1-yl]-2-trifluoromethylbenzonitrile], the “fold change in tumor volume of xenografts” value in series [4] is listed as “more effective than bicalutamide”. With `CC1(C)C(=O)N(c2ccc(C#N)c(C(F)(F)F)c2)C(=S)N1c1ccc(N=[N+]=[N-])cc1` [compound 25, 4-[3-(4-Azidophenyl)-4,4-dimethyl-5-oxo-2-thioxoimidazolidin-1-yl]-2-trifluoromethylbenzonitrile], the “relative PSA level vs vehicle (DMSO)” value in series [5] is “the best of this group”. Take `CC/N=C1\N(c2ccc(C#N)c(C(F)(F)F)c2)C(=S)N(c2ccc(C)cc2)C1(C)C` [compound 60]: in series [1], the luciferase assay activity result is “somewhat active”. Also, the “relative PSA levels” value in series [2] (setting [8]) is listed as “somewhat active”. Turning to `CNC(=O)CCCc1ccc(N2C(=S)N(c3ccc(C#N)c(C(F)(F)F)c3)C(=O)C23CCC3)cc1` [compound 80, N-Methyl-4-{4-[7-(4-cyano-3-trifluoromethylphenyl)-8-oxo-6-thioxo-5,7-diaza-spiro[3.4]-oct-5-yl]phenyl}butanamide], the “activity using PSA levels in vitro” value in series [6] is listed as “most active compound”. The “PK (serum concentration curve)” value in series [7] (Figure 4) is listed as “poor”. Further, the metabolism seen entry in series [7] (mouse, in vivo) was “hydrolysis of the N-methyl amide to the acid was seen”. Consider `Cc1ccc(N2C(=S)N(c3ccc(C#N)c(C(F)(F)F)c3)C(=O)C2(C)CF)cc1` (stereo not shown) [compound 47], for which the activity result in series [3] is on record as “good activity”. For `Cc1ccc(N2C(=S)N(c3ccc(C#N)c(C(F)(F)F)c3)C(=O)C23CCC3)cc1` [compound 38, 4-(8-Oxo-6-thioxo-5-(4-methylphenyl)-5,7-diazaspiro[3.4]oct-7-yl)-2-trifluoromethylbenzonitrile], the “fold change in tumor volume of xenografts” value in series [4] is listed as “slightly superior”. Besides, in series [4] (castration-resistant xenograft assay, model not named at the place, Figure 2), the “dose response in change in tumor volume of xenografts” value is recorded as “good dose response”. In series [7] (setting [9]), the clearance entry is “very rapid clearance” and the half-life result is on record as “short half-life”. The “relative PSA expression levels” value in series [2] (vs bicalutamide and 27 as standards, Scheme 9) was “comparable to the dimethyl analogue 27”. For the compound `Cc1ccc(N2/C(=N/c3ccc(C#N)c(C(F)(F)F)c3)S/C(=N\C(=S)Nc3ccc(C#N)c(C(F)(F)F)c3)C23CCC3)cc1` [compound 64], the “luciferase reporter assay activity” value in series [1] was “excellent activity comparable to their parent thiohydantoin analogues 27 and 38”. Also, the “relative PSA levels” value in series [2] (Scheme 14) was “excellent activity comparable to their parent thiohydantoin analogues 27 and 38”.

Regarding `C/N=C1\N(c2ccc(C#N)c(C(F)(F)F)c2)C(=S)N(c2ccc(C)cc2)C12CCC2` [compound 57], the luciferase assay activity entry in series [1] was “somewhat active”. Moreover, the “relative PSA levels” value in series [2] (setting [8]) is on record as “somewhat active”.
